molecular target: CBP recombinant proteins (Homo sapiens (Human), UniProt Q92793); assay: Competitive HTRF assay for affinity to CBP recombinant protein; type: binding; conditions: His-tagged CBP 5 nM, biotin-labeled ligand 50 nM, 1% DMSO
Procedure: The affinity of the compounds synthesized in the present patert to the CBP recombinant proteins was determined by competitive HTRF method. His-tagged cyclic adenosine monophosphate response element binding protein (CREB-binding protein, CBP) was expressed in Escherichia coli system and further purified. CBP biotinylated ligands were all self-made. The BL21 star (DE3) competert cells transfected with His-tagged CBP protein genes at N-terminal were cultured at 37° C. for 16 h until the OD value was between 0.6 and 0.8, induced by 0.5 mM of IPTG and cultured overnight. The supernatant of cell lysate was purified by a Ni-ion affinity column and a Superdex75 molecular sieve column sequentially. The purity of resulting CBP proteins was 95%. The fluorescent donor reagent MAb Anti 6HIS—Eu cryptate Gold (Cisbio #61HI2KLA), the receptor reagent Streptavidin-XL665 (#610SAXLA) and the detection buffer (#62SDBRDD) required for HTRF were obtained from CISBIO BIOASSAYS (Codolet, France). Tris(2-carboxyethyl)phosphine hydrochloride (TCEP), sodium chloride, adenosine triphosphate (ATP), Tween-20, dimethylsulfoxide (DMSO), bovine serum albumin (BSA) and HEPES buffer were obtained from SIGMA at the highest level commercially available.
The general procedure of the competitive HTRF assay for the affinity to CBP recombinant proteins is as follows: 0.05% Tween-20 and 1 mM of TCEP were added immediately before the assay, and the assay was performed in a buffer consisting of 0.1 mg/ml BSA, 50 mM of HEPES and 5 mM of NaCl of pH 7.5. 2.5 μL of compound solution in a determination buffer with 4% DMSO and 5 μL of CBP solution in a determination buffer were added to a white low-volume 384-well microtiter plate, incubated at room temperature for 20 min, and then incubated at room temperature for 40 min by adding 2.5 μL of biotin-labeled ligand solution to the determination buffer. The final concentrations of CBP, biotin-labeled ligand and DMSO were 5 nM, 50 nM and 1%, respectively. Then, 5 μL of MAb Anti 6HIS—Eu cryptate Gold and […] of Streptavidin-XL665 in detection buffers from the manufacturer were added to the mixture, and the mixture was incubated for another 60 min. The final concentration of Streptavidin-XL665 was 12.5 nM, and MAb Anti 6HIS—Eu cryptate Gold was diluted according to the final concentration provided by the supplier. The multimode reader Spark from TECAN (Mannedorf, Switzerland) was used to read the plate to detect the homogeneous time-resolved fluorescence intensity of two groups, in which the excitation wavelength was 320 nm and the emission wavelengths were 665 nm and 620 nm. The IC50 value of the inhibitor was obtained by fitting fluorescence intensity ratios at 665 nm/620 nm with respect to the inhibitor concentration in an S-shaped dose-response curve by using Prism 7 (La Jolla, 15 CA).

Chain of CBP recombinant proteins (Q92793 whole entry): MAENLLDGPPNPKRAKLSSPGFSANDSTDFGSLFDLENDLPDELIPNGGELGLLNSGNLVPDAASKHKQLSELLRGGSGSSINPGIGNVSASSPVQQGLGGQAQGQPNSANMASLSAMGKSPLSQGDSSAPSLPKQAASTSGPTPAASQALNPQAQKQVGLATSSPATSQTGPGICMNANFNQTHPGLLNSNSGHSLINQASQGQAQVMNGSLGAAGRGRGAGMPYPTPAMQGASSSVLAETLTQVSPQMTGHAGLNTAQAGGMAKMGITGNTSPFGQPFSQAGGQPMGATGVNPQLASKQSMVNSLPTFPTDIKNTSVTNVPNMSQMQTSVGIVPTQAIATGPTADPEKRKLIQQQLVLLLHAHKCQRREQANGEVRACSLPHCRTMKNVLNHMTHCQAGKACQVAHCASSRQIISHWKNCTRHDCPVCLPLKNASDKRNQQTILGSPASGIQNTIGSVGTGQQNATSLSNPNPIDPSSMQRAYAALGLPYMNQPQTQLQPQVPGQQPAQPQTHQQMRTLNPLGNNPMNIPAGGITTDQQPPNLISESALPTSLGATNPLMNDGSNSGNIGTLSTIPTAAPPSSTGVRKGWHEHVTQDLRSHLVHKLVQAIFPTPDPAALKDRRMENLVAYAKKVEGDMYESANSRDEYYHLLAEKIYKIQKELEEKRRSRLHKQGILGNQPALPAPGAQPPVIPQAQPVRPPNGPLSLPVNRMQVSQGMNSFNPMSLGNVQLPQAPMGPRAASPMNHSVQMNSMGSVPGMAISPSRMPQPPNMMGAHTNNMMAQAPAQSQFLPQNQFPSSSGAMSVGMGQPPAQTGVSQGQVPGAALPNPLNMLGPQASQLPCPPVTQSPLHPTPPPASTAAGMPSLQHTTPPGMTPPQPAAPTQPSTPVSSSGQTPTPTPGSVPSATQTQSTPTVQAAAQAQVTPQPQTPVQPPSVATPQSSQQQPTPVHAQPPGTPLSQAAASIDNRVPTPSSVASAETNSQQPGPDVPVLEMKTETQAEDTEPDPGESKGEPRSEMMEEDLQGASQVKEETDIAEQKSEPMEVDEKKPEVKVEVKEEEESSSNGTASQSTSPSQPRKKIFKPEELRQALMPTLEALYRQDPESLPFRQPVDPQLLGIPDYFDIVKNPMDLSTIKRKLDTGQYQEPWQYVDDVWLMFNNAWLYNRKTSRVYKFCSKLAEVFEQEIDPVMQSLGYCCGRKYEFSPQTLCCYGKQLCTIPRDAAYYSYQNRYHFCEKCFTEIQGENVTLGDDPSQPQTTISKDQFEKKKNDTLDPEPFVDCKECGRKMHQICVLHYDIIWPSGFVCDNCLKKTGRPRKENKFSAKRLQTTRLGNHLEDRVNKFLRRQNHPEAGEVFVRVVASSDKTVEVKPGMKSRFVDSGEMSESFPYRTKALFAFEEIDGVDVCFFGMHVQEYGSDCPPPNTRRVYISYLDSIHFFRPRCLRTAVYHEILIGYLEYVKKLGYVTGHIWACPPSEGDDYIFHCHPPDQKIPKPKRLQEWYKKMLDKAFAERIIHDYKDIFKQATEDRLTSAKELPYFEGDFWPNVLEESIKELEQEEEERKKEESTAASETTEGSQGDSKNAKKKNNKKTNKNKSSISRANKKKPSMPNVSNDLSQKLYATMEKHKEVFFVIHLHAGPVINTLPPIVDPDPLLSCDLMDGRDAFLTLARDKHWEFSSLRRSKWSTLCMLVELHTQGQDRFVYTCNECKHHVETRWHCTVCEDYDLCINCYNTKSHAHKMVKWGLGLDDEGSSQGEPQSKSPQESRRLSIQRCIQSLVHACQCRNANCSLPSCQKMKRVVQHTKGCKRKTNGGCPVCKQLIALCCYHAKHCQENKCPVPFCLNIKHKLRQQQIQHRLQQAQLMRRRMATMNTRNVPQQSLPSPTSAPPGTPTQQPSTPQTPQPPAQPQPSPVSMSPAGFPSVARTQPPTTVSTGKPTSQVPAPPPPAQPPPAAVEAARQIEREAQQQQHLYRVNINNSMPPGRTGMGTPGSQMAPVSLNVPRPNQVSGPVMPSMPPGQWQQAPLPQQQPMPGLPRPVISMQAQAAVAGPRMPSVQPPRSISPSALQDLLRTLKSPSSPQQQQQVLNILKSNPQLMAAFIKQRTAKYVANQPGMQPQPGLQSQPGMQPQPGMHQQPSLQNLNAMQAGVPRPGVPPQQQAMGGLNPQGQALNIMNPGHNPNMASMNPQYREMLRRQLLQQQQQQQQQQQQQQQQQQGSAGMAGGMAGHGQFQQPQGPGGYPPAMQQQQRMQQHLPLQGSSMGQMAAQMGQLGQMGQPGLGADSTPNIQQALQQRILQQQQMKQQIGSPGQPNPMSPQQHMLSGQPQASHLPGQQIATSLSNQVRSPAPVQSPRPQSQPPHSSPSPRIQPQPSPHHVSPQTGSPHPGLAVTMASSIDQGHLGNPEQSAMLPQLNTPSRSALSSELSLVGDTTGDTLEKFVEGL

IC50 [µM] | SMILES
0.072 | CNC(=O)c1cc2ccccc2c(N2CCCc3cc(-c4cnn(C)c4)ccc32)n1 [Example 1, 1-[6-(1-methyl-1H-pyrazol-4-yl)-3,4-dihydro-2H-quinolin-1-yl]-isoquinoline-3-carboxylic acid methylamide]
0.019 | CNC(=O)c1cc2ccccc2c(N2CCCc3cc(-c4cnn(C)c4)c(C(F)F)cc32)n1 [Example 2, 1-[7-difluoromethyl-6-(1-methyl-1H-pyrazol-4-yl)-3,4-dihydro-2H-quinolin-1-yl]isoquinoline-3-carboxylic acid methylamide]
0.245 | Cn1cc(-c2cc3c(cc2C(F)F)N(c2nc(C(N)=O)cc4ccccc24)CCC3)cn1 [Example 3, 1-[7-difluoro-methyl-6-(1-methyl-1H-pyrazol-4-yl)-3,4-dihydro-2H-quinolin-1-yl]-isoquinoline-3-carboxylic acid amide]
> 1 | CN(C)C(=O)c1cc2ccccc2c(N2CCCc3cc(-c4cnn(C)c4)c(C(F)F)cc32)n1 [Example 4, 1-[7-difluoro-methyl-6-(1-methyl-1H-pyrazol-4-yl)-3,4-dihydro-2H-quinolin-1-yl]-isoquinoline-3-carboxylic acid dimethylamide]
> 1 | CCNC(=O)c1cc2ccccc2c(N2CCCc3cc(-c4cnn(C)c4)c(C(F)F)cc32)n1 [Example 5, 1-[7-difluoro-methyl-6-(1-methyl-1H-pyrazol-4-yl)-3,4-dihydro-2H-quinolin-1-yl]-isoquinoline-3-carboxylic acid ethylamide]
> 1 | Cn1cc(-c2cc3c(cc2C(F)F)N(c2nc(C(=O)NCCO)cc4ccccc24)CCC3)cn1 [Example 6, 1-[7-difluoro-methyl-6-(1-methyl-1H-pyrazol-4-yl)-3,4-dihydro-2H-quinolin-1-yl]-isoquinoline-3-carboxylic acid(2-hydroxy-ethyl)-amide]
> 1 | CC(O)CNC(=O)c1cc2ccccc2c(N2CCCc3cc(-c4cnn(C)c4)c(C(F)F)cc32)n1 (stereo not drawn) [Example 7, 1-[7-difluoro-methyl-6-(1-methyl-1H-pyrazol-4-yl)-3,4-dihydro-2H-quinolin-1-yl]-isoquinoline-3-carboxylic acid(2-hydroxy-propyl)-amide]
> 1 | Cn1cc(-c2cc3c(cc2C(F)F)N(c2nc(C(=O)N4CC(O)C4)cc4ccccc24)CCC3)cn1 [Example 8, {1-[7-difluoro-methyl-6-(1-methyl-1H-pyrazol-4-yl)-3,4-dihydro-2H-quinolin-1-yl]-isoquinolin-3-yl}-(3-hydroxy-azetidine-1-yl)methanone]
> 1 | Cn1cc(-c2cc3c(cc2C(F)F)N(c2nc(C(=O)NC4CC4)cc4ccccc24)CCC3)cn1 [Example 9, 1-[7-difluoro-methyl-6-(1-methyl-1H-pyrazol-4-yl)-3,4-dihydro-2H-quinolin-1-yl]-isoquinoline-3-carboxylic acid cyclopro-pylamide]
> 1 | CNC(=O)c1cccc(N2CCCc3cc(-c4cnn(C)c4)c(C(F)F)cc32)n1 [Example 11]
> 1 | CNC(=O)c1nc(N2CCCc3cc(-c4cnn(C)c4)c(C(F)F)cc32)c2ccccc2n1 [Example 12, 4-[7-difluoro-methyl-6-(1-methyl-1H-pyrazol-4-yl)-3,4-dihydro-2H-quinolin-1-yl]-quinazolin-2-carboxylic acid methylamide]
0.021 | CNC(=O)c1cc2cnccc2c(N2CCCc3cc(-c4cnn(C)c4)c(C(F)F)cc32)n1 [Example 13, 2-[7-difluoro-methyl-6-(1-methyl-1H-pyrazol-4-yl)-3,4-dihydro-2H-quinolin-1-yl]-[2,6] naphthyridine-3-carboxylic acid methylamide]
0.015 | CNC(=O)c1cc2ccncc2c(N2CCCc3cc(-c4cnn(C)c4)c(C(F)F)cc32)n1 [Example 14, 1-[7-difluoro-methyl-6-(1-methyl-1H-pyrazol-4-yl)-3,4-dihydro-2H-quinolin-1-yl]-[2,7] naphthyridine-3-carboxylic acid methylamide]
0.0075 | CNC(=O)c1cc2cccnc2c(N2CCCc3cc(-c4cnn(C)c4)c(C(F)F)cc32)n1 [Example 15, 8-[7-difluoro-methyl-6-(1-methyl-1H-pyrazol-4-yl)-3,4-dihydro-2H-quinolin-1-yl]-[1,7] naphthyridine-6-carboxylic acid methylamide]
0.013 | CNC(=O)c1cc2ccc(C3=CCOCC3)cc2c(N2CCCc3cc(-c4cnn(C)c4)c(C(F)F)cc32)n1 [Example 16, 1-[7-difluoromethyl-6-(1-methyl-1H-pyrazol-4-yl)-3,4-dihydro-2H-quinolin-1-yl]-7-(3,6-dihydro-2H-pyran-4-yl)-isoquinoline-3-carboxylic acid methylamide]
0.012 | CNC(=O)c1cc2ccc(C3CCOCC3)cc2c(N2CCCc3cc(-c4cnn(C)c4)c(C(F)F)cc32)n1 [Example 17, 1-[7-difluoromethyl-6-(1-methyl-1H-pyrazol-4-yl)-3,4-dihydro-2H-quinolin-1-yl]-7-(tetrahydro-4-yl)-isoquinoline-3-carboxylic acid methylamide]
0.019 | CNC(=O)c1cc2ccc(C3=CCOC3)cc2c(N2CCCc3cc(-c4cnn(C)c4)c(C(F)F)cc32)n1 [Example 18, 1-[7-difluoromethyl-6-(1-methyl-1H-pyrazol-4-yl)-3,4-dihydro-2H-quinolin-1-yl]-7-(2,5-dihydro-furan-3-yl)-isoquinoline-3-carboxylic acid methylamide]
0.0069 | CNC(=O)c1cc2ccc(C3CCOC3)cc2c(N2CCCc3cc(-c4cnn(C)c4)c(C(F)F)cc32)n1 (stereo not drawn) [Example 19, 1-[7-difluoromethyl-6-(1-methyl-1H-pyrazol-4-yl)-3,4-dihydro-2H-quinolin-1-yl]-7-(tetrahydrofuran-3-yl)-isoquinoline-3-carboxylic acid methylamide]
0.018 | CNC(=O)c1cc2cc(C3=CCOCC3)ccc2c(N2CCCc3cc(-c4cnn(C)c4)c(C(F)F)cc32)n1 [Example 20, 1-[7-difluoromethyl-6-(1-methyl-1H-pyrazol-4-yl)-3,4-dihydro-2H-quinolin-1-yl]-6-(3,6-dihydro-2H-pyran-4-yl)-isoquino-line-3-carboxylic acid methylamide]
0.038 | CNC(=O)c1cc2cc(C3CCOCC3)ccc2c(N2CCCc3cc(-c4cnn(C)c4)c(C(F)F)cc32)n1 [Example 21, 1-[7-difluoromethyl-6-(1-methyl-1H-pyrazol-4-yl)-3,4-dihydro-2H-quinolin-1-yl]-6-(tetrahydro-pyran-4-yl)-isoquinoline-3-carboxylic acid methylamide]
0.022 | CNC(=O)c1cc2cc(C3=CCOC3)ccc2c(N2CCCc3cc(-c4cnn(C)c4)c(C(F)F)cc32)n1 [Example 22, 1-[7-difluoromethyl-6-(1-methyl-1H-pyrazol-4-yl)-3,4-dihydro-2H-quinolin-1-yl]-6-(2,5-dihydro-furan-3-yl)-isoquinoline-3-carboxylic acid methylamide]
0.018 | CNC(=O)c1cc2cc(C3CCOC3)ccc2c(N2CCCc3cc(-c4cnn(C)c4)c(C(F)F)cc32)n1 (stereo not drawn) [Example 23, 1-[7-difluoromethyl-6-(1-methyl-1H-pyrazol-4-yl)-3,4-dihydro-2H-quinolin-1-yl]-6-(tetrahydrofuran-3-yl)-isoquinoline-3-carboxylic acid methylamide]
0.0078 | CNC(=O)c1cc2ccc(N3CCOC3=O)cc2c(N2CCCc3cc(-c4cnn(C)c4)c(C(F)F)cc32)n1 [Example 24, 1-[7-difluoromethyl-6-(1-methyl-1H-pyrazol-4-yl)-3,4-dihydro-2H-quinolin-1-yl]-7-(2-oxo-oxazolidin-3-yl)-isoquinoline-3-carboxylic acid methylamide]
0.0042 | CNC(=O)c1cc2cc(N3CCOC3=O)ccc2c(N2CCCc3cc(-c4cnn(C)c4)c(C(F)F)cc32)n1 [Example 25, 1-[7-difluoromethyl-6-(1-methyl-1H-pyrazol-4-yl)-3,4-dihydro-2H-quinolin-1-yl]-6-(2-oxo-oxazolidin-3-yl)-isoquinoline-3-carboxylic acid methylamide]
